We go through 14 compounds from patent US9884860B2, “Fused pyrroledicarboxamides and their use as pharmaceuticals” (SANOFI, priority 2012, dated 2018).

By inhibition is commonly meant the share of the control response that was lost under treatment. The low end stands for little suppression, the high end for strong suppression. The term pIC50 denotes the IC50 on a negative log10 scale, so that one unit is a factor of ten.

pIC50: −log10 of the molar value.

Human TASK-1 channels, sequence (O14649 whole entry): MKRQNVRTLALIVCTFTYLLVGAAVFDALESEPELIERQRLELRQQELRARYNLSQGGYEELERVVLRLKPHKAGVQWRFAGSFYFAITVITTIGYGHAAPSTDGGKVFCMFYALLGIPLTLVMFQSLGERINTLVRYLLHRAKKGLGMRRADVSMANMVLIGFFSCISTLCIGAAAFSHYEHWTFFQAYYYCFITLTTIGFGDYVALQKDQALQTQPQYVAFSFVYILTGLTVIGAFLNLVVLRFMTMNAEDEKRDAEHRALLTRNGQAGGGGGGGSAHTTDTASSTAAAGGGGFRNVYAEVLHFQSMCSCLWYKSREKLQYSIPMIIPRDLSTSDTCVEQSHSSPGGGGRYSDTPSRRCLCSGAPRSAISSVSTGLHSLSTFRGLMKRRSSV

The first test deals with Human TASK-1 channels (Homo sapiens (Human), UniProt O14649). Briefly: Determination of the activity on the TASK-1 channel in Xenopus oocytes (two-microelectrode voltage clamp). The test is classed as cell-based. Conditions: compound concentration 5 μM. Here is the method:
Determination of the activity on the TASK-1 channel in Xenopus oocytes
Human TASK-1 channels were expressed in Xenopus oocytes. For this purpose, oocytes were isolated from Xenopus laevis and defoliculated. Subsequently, TASK-1-encoding RNA synthesized in vitro was injected into the oocytes. After two days of TASK-1 protein expression, TASK-1 currents were measured by two-microelectrode voltage clamp. Data were acquired and analyzed using a TEC-10cx amplifier (NPI Electronic, Tamm, Germany) connected to an ITC-16 interface (Instrutech Corp., Long island, USA) and Pulse software (HEKA Elektronik, Lambrecht, Germany). Oocytes were clamped to −90 mV and TASK-1 mediated currents were measured during 500 ms voltage pulses to 40 mV. Oocytes were continuously superfused with ND96 buffer containing 98 mM sodium chloride, 2 mM potassium chloride, 1.8 mM calcium chloride, 1 mM magnesium chloride, 5 mM 4-(2-hydroxyethyl)-piperazine-1-ethanesulfonic acid (HEPES: pH adjusted to 7.4 with sodium hydroxide). All experiments were performed at room temperature. Test compounds were consecutively added to the bath solution at rising concentrations. Compound effects were calculated as the percentage inhibition of TASK-1 control current before compound addition. IC50 values were obtained by fitting the data to the general dose-response equation.
Compound `CC[C@@H](NC(=O)c1cc(C(=O)NCc2ccc3cc[nH]c3c2)n2c1COCC2)c1ccccc1` [16je, 3,4-Dihydro-1H-pyrrolo[2,1-c][1,4]oxazine-6,8-dicarboxylic acid 6-[(1H-indol-6-ylmethyl)-amide] 8-[((R)-1-phenyl-propyl)-amide]] returned an inhibition at 5 µM of 91%.

Staying with this test, now noted: human TASK-1 expressed in Xenopus oocytes, room temperature; read-out: IC50 value for TASK-1 inhibition.
As for “3,4-Dihydro-1H-pyrrolo[2,1-c][1,4]oxazine-6,8-dicarboxylic acid 8-[((R)- 1-phenyl-propyl)-amide] 6-{[(R)-1-(5-trifiuoromethyl-pyridin-3-yl)- propyl]-amide} [16hn]”, the pIC50 was 6.16.

On to “3,4-Dihydro-1H-pyrrolo[2,1-c][1,4]oxazine-6,8-dicarboxylic acid 8-{[(R)- 1-(6-rnethoxy-pyridin-3-yl)-propy]-amide} 6-[((R)-1-phenyl-propyl)- amide] [16jo]”, for which the pIC50 is 6.60.

“5,6,7,8-Tetrahydro-indolizine-1,3-dicarboxylic acid 3-[(3,5-dimethyl- isoxazol-4-yl)-amide] 1-[((R)-1-phenyl-propyl)-amide] [16nd]”: the pIC50 was 6.68.

Turning to `CC[C@@H](NC(=O)c1cc(C(=O)NC(C)c2cnccn2)n2c1COCC2)c1ccccc1` (single isomer, unassigned; diastereomer 1) [16if], the pIC50 was 5.96.

For `CC[C@@H](NC(=O)c1cc(C(=O)NC(C)c2cnccn2)c2n1CCOC2)c1ccccc1` (single isomer, unassigned; diastereomer 1) [16jw], the pIC50 is 5.54.

Take `CC(NC(=O)c1cc(C(=O)N[C@@H](c2ccc(F)cc2)C(C)C)n2c1COCC2)c1cnccn1` (single isomer, unassigned; diastereomer 1) [16lq]: the pIC50 was 6.15.

Take `CC[C@@H](NC(=O)c1cc(C(=O)NC(C)c2cnccn2)c2n1CCOC2)c1ccc(F)cc1F` (single isomer, unassigned; diastereomer 1) [16pl]: the pIC50 is 6.37.

In the case of `CCC(NC(=O)c1cc(C(=O)N2CCC[C@@H]2C)n2c1COCC2)c1ncc(C(F)(F)F)s1` (single isomer, unassigned; diastereomer 2) [16ce], the pIC50 was 6.55.

In the case of `CCC(NC(=O)c1cc(C(=O)N[C@H](CC)c2ccccc2)c2n1CCOC2)c1cnc(OC)nc1` (single isomer, unassigned; diastereomer 2) [16hv], the pIC50 was 6.12.

For `CCC(NC(=O)c1cc(C(=O)N2CCC[C@@H]2C)n2c1COCC2)c1ccc(S(F)(F)(F)(F)F)cc1` (some centres unmarked) [16bf], the pIC50 was 6.13.

`CC[C@@H](NC(=O)c1cc(C(=O)N2CCC[C@@H]2C)n2c1COCC2)c1ccc2c(c1)OC(F)(F)O2` [16bz, 6-((S)-2-Methyl-pyrrolidine-1-carbonyl)-3,4-dihydro-1H-pyrrolo[2,1-c][1,4]oxazine-8-carboxylic acid [(R)-1-(2,2-difluoro-benzo[1,3]dioxol-5-yl)-propyl]-amide]: the pIC50 is 6.70.

For `CC[C@H](NC(=O)c1cc(C(=O)N[C@H](C)c2ccc(F)cc2)n2c1COCC2)c1cnc(OC)cn1` [16dv, 3,4-Dihydro-1H-pyrrolo[2,1-c][1,4]oxazine-6,8-dicarboxylic acid 6-{[(R)-1-(4-fluoro-phenyl)-ethyl]-amide} 8-{[(S)-1-(5-methoxy-pyrazin-2-yl)-propyl]-amide}], the pIC50 is 6.72.

As for `CC[C@@H](NC(=O)c1cc(C(=O)NCc2cncc(F)c2)n2c1CCCC2)c1ccccc1` [16nb, 5,6,7,8-Tetrahydro-indolizine-1,3-dicarboxylic acid 3-[(5-fluoro-pyridin-3-ylmethyl)-amide] 1-[((R)-1-phenyl-propyl)-amide]], the pIC50 is 6.34.
